In patent publication US20090239757A1, “Control Sequences Responding to AMP and Uses Thereof” (priority 2004, published 2009):
Residues, ends and D or L forms follow the SMILES beside them.

Test system: E. coli
Assay: growth and killing of E. coli on induced expression of novispirin (Suicide Expression System)
Format: cell-based, Escherichia coli
Excerpt: In the examples below the method of the invention has been illustrated using novispirin as the antimicrobial peptide and E. coli as the host cell. To assess the sustained physiological response of E. coli to novispirin, an arabinose induction system was used to make E. coli produce novispirin at a sub-lethal rate. […] These categories comprise particularly genes related to membrane dysfunction, heat shock, phage shock and antimicrobial peptide defense.
A plasmid was constructed to investigate the transcriptional response of E. coli upon expressing Novispirin G10 in a Suicide Expression System (SES) setup. The SES takes advantage of conditionally expressing antimicrobial peptides in a sensitive host. The degree of inhibition in the host reflects the potency of the antimicrobial peptide (AMP) (WO200073433). In the current setup, the AMP is exported to the periplasmic space where it interacts with the inner and/or outer membrane of E. coli.
In order to obtain a transcriptional profile of E. coli expressing Novispirin G10, 2×10 mL sterile LB media (10 g/L Bactotryptone, 5 g/L Yeast extract, and 10 g/L NaCl) containing 100 mg/L ampicillin was inoculated with E. coli TOP10 harbouring pDRS5-novispirin and pBAD gIII A, respectively. These cultures were grown overnight at 37° C. at 180 rpm. […]

SMILES: CC[C@H](C)[C@H](NC(=O)CNC(=O)[C@H](CCCCN)NC(=O)[C@H](CCCNC(=N)N)NC(=O)[C@@H](NC(=O)[C@@H](NC(=O)[C@H](CCCNC(=N)N)NC(=O)[C@H](CCCNC(=N)N)NC(=O)[C@H](CC(C)C)NC(=O)[C@H](CC(N)=O)NC(=O)[C@@H](N)CCCCN)[C@@H](C)CC)[C@@H](C)CC)C(=O)N[C@@H](Cc1c[nH]cn1)C(=O)N[C@H](C(=O)N[C@H](C(=O)N[C@@H](CCCCN)C(=O)N[C@@H](CCCCN)C(=O)N[C@@H](Cc1ccc(O)cc1)C(=O)NCC(=O)O)[C@@H](C)CC)[C@@H](C)CC [Novispirin G10] (H-KNLRRIIRKGIHIIKKYG-OH; N-terminus assumed)
- growth rate on induction of novispirin expression (arabinose induction, sub-lethal rate, growth was not completely inhibited): reduced the growth rate significantly
- inhibition and killing of the host when the AMP is expressed (expressed and exported to the periplasmic space, as opposed to adding purified peptide to a cell culture): prolong the inhibition and delay killing
